Assay results: patent publication US10683291B2, “Heterocyclic compounds for the treatment of disease” (OPPILAN PHARMA LTD., priority 2015, dated 2020)

Key:
human S1P1 = human S1P1 (Homo sapiens (Human), UniProt P21453); assay: GTPγS binding assay (scintillation proximity assay); type: biochemical; conditions: S1P1 membrane from CHO-K1 Gαqi5 cells expressing full-length human S1P1; GTPγ35S SPA
Procedure: S1P1 membrane is prepared from CHO-K1 Gαqi5 cells expression full-length human S1P1. Scintillation proximity assay (SPA) is performed by incubating membranes, GTPγ^35S, and compounds at various concentrations for 60 minutes. Wheat germ agglutinin-coated SPA beads are added and incubated for 60 minutes before centrifugation and scintillation counting.

lymphocyte count = assay: Lymphocyte count in mice; type: in vivo; conditions: 10 mg/kg p.o., blood at 4 hr, FIG. 2
Procedure: A total of 6 mice were used in this study for each compound (Examples 1-6) and divided in two groups as Group 1 (vehicle, Dose: 10 mL/kg) and Group 2 (Compound, Dose: 10 mg/kg, p.o.). Animals in Group 1 were administered with vehicle. Animals in Group 2 were administered with solution formulation of PTC1566-1 at 10 mg/kg dose through oral route. Blood samples from Group 2 were collected under light isoflurane anesthesia from a set of three mice at 1 & 4 hr (p.o.) and from Group 1 blood samples were collected at 4 hr. Plasma was harvested by centrifugation of blood and stored at −70° C. until analysis. Brain was collected at 4 hr from Group 2 animals, weighed and transferred in a poly-propylene tube. Two volumes of PBS buffer (pH 7.4) was added and homogenized to get final volume of 3 times and stored below −70° C. until bioanalysis. Blood sample at 4 hr from both groups were used for lymphocyte count. Analysis Plasma and Brain samples were quantified by fit-for-purpose LCMS/MS method (LLOQ: 4.91 ng/mL for plasma and 14.73 ng/g for brain). For each of the six compounds tested, plasma concentration was greater than 2600 ng/mL at 1 hr and greater than 2100 ng/mL at 4 hr. For each of the six compounds tested, brain concentration was less than 200 ng/g. For each of the six compounds tested (Compound 15, Compound 18, Compound 19, Compound 16, Compound 11, and Compound 13), the lymphocyte count was less than 45% of control (FIG. 2).

Sequence of human S1P1 (P21453 whole entry): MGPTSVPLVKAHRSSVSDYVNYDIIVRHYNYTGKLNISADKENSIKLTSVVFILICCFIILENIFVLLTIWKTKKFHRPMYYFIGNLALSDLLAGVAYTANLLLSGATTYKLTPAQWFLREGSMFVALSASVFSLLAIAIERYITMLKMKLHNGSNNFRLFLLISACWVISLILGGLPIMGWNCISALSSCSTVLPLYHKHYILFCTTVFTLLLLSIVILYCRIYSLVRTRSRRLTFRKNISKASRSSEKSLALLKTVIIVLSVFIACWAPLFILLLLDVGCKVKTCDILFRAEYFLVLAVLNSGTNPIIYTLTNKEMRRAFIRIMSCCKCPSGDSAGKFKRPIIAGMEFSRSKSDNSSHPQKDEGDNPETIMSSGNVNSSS

Compound | EC50 (human S1P1) | lymphocyte count (lymphocyte count)
O=C1CC[C@@H](COc2cc(Cl)c(-c3noc(-c4cn5cc(C(F)(F)F)cc(Cl)c5n4)n3)cc2Cl)N1 [Example 1, (S)-5-((2,5-dichloro-4-(5-(8-chloro-6-(trifluoromethyl)imidazo[1,2-a]pyridin-2-yl)-1,2,4-oxadiazol-3-yl)phenoxy)methyl)pyrrolidin-2-one] | < 1 µM | less than 45 % of control
O=C1CC[C@H](COc2cc(Cl)c(-c3noc(-c4cn5cc(C(F)(F)F)cc(Cl)c5n4)n3)cc2Cl)N1 [Example 3, (R)-5-((2,5-dichloro-4-(5-(8-chloro-6-(trifluoromethyl)imidazo[1,2-a]pyridin-2-yl)-1,2,4-oxadiazol-3-yl)phenoxy)methyl)pyrrolidin-2-one] | – | less than 45 % of control
CN1C[C@@H](Oc2cc(Cl)c(-c3noc(-c4cn5cc(C(F)(F)F)cc(Cl)c5n4)n3)cc2Cl)CCC1=O [Example 4, (S)-5-(2,5-dichloro-4-(5-(8-chloro-6-(trifluoromethyl)imidazo[1,2-a]pyridin-2-yl)-1,2,4-oxadiazol-3-yl)phenoxy)-1-methylpiperidin-2-one] | – | less than 45 % of control
O=C1CC[C@@H](Oc2cc(Cl)c(-c3noc(-c4cn5cc(C(F)(F)F)cc(Cl)c5n4)n3)cc2Cl)CN1 [Example 5, (R)-5-(2,5-dichloro-4-(5-(8-chloro-6-(trifluoromethyl)imidazo[1,2-a]pyridin-2-yl)-1,2,4-oxadiazol-3-yl)phenoxy)piperidin-2-one] | < 1 µM | less than 45 % of control
CN1C[C@H](Oc2cc(Cl)c(-c3noc(-c4cn5cc(C(F)(F)F)cc(Cl)c5n4)n3)cc2Cl)CCC1=O [Example 6, (R)-5-(2,5-dichloro-4-(5-(8-chloro-6-(trifluoromethyl)imidazo[1,2-a]pyridin-2-yl)-1,2,4-oxadiazol-3-yl)phenoxy)-1-methylpiperidin-2-one] | < 1 µM | less than 45 % of control
